Measurements taken from ChEMBL document CHEMBL3217656, “Identification of a potent salicylic acid-based inhibitor of tyrosine phosphatase PTP1B” (Medchemcomm, 2013).
Active and inactive are the calls of the source. No cut-off for these calls is given here.

What was measured:
Papain (Carica papaya) = biological target: T1, Papain (Carica papaya) (UniProt P00784); assay: Inhibition of papaya papain assessed as Z-Phe-Arg-pNA hydrolysis at 10 uM by fluorometric kinetic-based assay
T1 sequence (whole entry): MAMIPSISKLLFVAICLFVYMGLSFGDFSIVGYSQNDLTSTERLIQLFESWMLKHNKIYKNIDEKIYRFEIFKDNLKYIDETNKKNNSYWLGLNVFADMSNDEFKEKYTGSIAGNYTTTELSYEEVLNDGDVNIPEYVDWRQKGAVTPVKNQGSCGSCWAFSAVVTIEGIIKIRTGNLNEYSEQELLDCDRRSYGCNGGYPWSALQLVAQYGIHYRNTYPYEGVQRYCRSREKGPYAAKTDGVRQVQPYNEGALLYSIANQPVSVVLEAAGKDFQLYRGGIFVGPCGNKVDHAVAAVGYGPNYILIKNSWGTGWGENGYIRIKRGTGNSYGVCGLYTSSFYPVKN

[1] = biological target: T2, Tyrosine-protein phosphatase non-receptor type 2 (Homo sapiens, UniProt P17706); assay: Inhibition of human GST-tagged TC-PTP catalytic domain assessed as DiFMUP hydrolysis by fluorometric kinetic-based assay
T2 sequence (P17706 whole entry): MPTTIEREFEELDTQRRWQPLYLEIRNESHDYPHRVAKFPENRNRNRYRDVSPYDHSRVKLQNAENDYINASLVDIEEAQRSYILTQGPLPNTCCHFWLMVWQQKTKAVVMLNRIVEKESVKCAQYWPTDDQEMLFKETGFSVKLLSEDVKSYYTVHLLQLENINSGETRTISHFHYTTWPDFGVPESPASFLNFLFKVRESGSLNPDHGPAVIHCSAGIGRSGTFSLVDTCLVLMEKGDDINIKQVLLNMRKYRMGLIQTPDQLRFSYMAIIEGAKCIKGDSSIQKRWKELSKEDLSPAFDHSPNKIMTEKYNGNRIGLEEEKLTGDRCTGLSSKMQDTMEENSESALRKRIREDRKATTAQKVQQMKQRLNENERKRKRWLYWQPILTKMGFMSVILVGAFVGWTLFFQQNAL

[2] = biological target: Receptor-type tyrosine-protein phosphatase F (Homo sapiens) (UniProt P10586); assay: Inhibition of human GST-tagged PTP-LAR D1D2 domain assessed as DiFMUP hydrolysis at 10 uM by fluorometric kinetic-based assay
[3] = biological target: T3, Receptor-type tyrosine-protein phosphatase S (Homo sapiens, UniProt Q13332); assay: Inhibition of human GST-tagged PTP-sigma D1D2 domain assessed as DiFMUP hydrolysis at 10 uM by fluorometric kinetic-based assay
[4] = biological target: T4, Dual specificity protein phosphatase 22 (Homo sapiens) (UniProt Q9NRW4); assay: Inhibition of human GST-tagged full length MKPX assessed as DiFMUP hydrolysis at 10 uM by fluorometric kinetic-based assay
T4 sequence (whole entry): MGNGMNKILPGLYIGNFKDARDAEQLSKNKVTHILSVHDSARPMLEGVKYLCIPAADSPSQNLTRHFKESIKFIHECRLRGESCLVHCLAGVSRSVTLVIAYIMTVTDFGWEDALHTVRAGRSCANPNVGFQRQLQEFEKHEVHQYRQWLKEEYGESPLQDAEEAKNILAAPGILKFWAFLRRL

[5] = Inhibition of human GST-tagged PRL2 A/S active mutant assessed as DiFMUP hydrolysis by fluorometric kinetic-based assay
Homo sapiens = organism: Homo sapiens; assay: Inhibition of human GST-tagged PRL2 A/S active mutant assessed as DiFMUP hydrolysis at 10 uM by fluorometric kinetic-based assay
Papain = biological target: T5, Papain (Carica papaya, UniProt P00784); assay: Inhibition of papaya papain assessed as Z-Phe-Arg-pNA hydrolysis by fluorometric kinetic-based assay
T5 sequence (P00784 whole entry): T1 sequence (whole entry)

[6] = biological target: T3, Receptor-type tyrosine-protein phosphatase S; assay: Inhibition of human GST-tagged PTP-sigma D1D2 domain assessed as DiFMUP hydrolysis by fluorometric kinetic-based assay
[7] = biological target: T6, Tyrosine-protein phosphatase non-receptor type 1 (Homo sapiens, UniProt P18031); assay: Inhibition of human GST-tagged PTP1B catalytic domain assessed as DiFMUP hydrolysis by fluorometric kinetic-based assay
T6 sequence (P18031 whole entry): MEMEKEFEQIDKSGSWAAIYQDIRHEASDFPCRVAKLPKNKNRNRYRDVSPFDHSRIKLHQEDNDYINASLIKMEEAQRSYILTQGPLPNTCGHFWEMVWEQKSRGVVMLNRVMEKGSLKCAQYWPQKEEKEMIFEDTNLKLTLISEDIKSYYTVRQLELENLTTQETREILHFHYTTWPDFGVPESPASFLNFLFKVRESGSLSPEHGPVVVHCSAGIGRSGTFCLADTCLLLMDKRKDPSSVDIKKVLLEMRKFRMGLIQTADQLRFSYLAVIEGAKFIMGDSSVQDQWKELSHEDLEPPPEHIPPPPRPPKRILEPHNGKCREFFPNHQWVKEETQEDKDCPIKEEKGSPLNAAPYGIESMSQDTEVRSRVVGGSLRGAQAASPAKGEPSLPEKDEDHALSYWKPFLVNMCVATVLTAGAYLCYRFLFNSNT

[8] = biological target: T7, Tyrosine-protein phosphatase non-receptor type 1 (Homo sapiens) (UniProt P18031); assay: Inhibition of human GST-tagged PTP1B catalytic domain assessed as DiFMUP hydrolysis at 10 uM by fluorometric kinetic-based assay
T7 sequence (whole entry): T6 sequence (P18031 whole entry)

[9] = biological target: T8, Dual specificity protein phosphatase 22 (Homo sapiens, UniProt Q9NRW4); assay: Inhibition of human GST-tagged full length MKPX assessed as DiFMUP hydrolysis by fluorometric kinetic-based assay
T8 sequence (Q9NRW4 whole entry): T4 sequence (whole entry)

[10] = biological target: T9, Tyrosine-protein phosphatase non-receptor type 2 (Homo sapiens) (UniProt P17706); assay: Inhibition of human GST-tagged TC-PTP catalytic domain assessed as DiFMUP hydrolysis at 10 uM by fluorometric kinetic-based assay
T9 sequence (whole entry): T2 sequence (P17706 whole entry)

[11] = biological target: Receptor-type tyrosine-protein phosphatase F (Homo sapiens) (UniProt P10586); assay: Inhibition of human GST-tagged PTP-LAR D1D2 domain assessed as DiFMUP hydrolysis by fluorometric kinetic-based assay
[12] = biological target: T6, Tyrosine-protein phosphatase non-receptor type 1; assay: Competitive inhibition of human GST-tagged PTP1B catalytic domain assessed as rate of DiFMUP hydrolysis by lineweaver-burk plot analysis
CHO [13] = assay: Cytotoxicity against Chinese hamster CHO cells overexpressing IR assessed as cell proliferation rate at 50 uM by xCELLigence system; assay type: cell-based, Cricetulus griseus
CHO [14] = assay: Inhibition of PTP1B in Chinese hamster CHO cells overexpressing IR assessed as insulin-stimulated IR phosphorylation treated for 3 hrs prior to insulin stimulation for 15 mins by western blot analysis; assay type: cell-based; details: Cricetulus griseus
CHO [15] = assay: Cytotoxicity against Chinese hamster CHO cells overexpressing IR assessed as cell proliferation rate at 0.4 to 10 uM by xCELLigence system; assay type: cell-based, Cricetulus griseus
[16] = biological target: T2, Tyrosine-protein phosphatase non-receptor type 2; assay: Inhibition of TC-PTP (unknown origin) expressed in Escherichia coli cells assessed as p-nitrophenyl phosphate hydrolysis by spectrophotometric analysis
[17] = biological target: T6, Tyrosine-protein phosphatase non-receptor type 1; assay: Inhibition of PTP1B (unknown origin) expressed in Escherichia coli cells assessed as p-nitrophenyl phosphate hydrolysis by spectrophotometric analysis
CHO [18] = assay: Cytotoxicity against Chinese hamster CHO cells overexpressing IR assessed as slight reduction in cell viability at >50 uM by xCELLigence system; assay type: cell-based, Cricetulus griseus
[19] = biological target: T7, Tyrosine-protein phosphatase non-receptor type 1 (Homo sapiens); assay: Mixed inhibition of human GST-tagged PTP1B catalytic domain assessed as rate of DiFMUP hydrolysis by lineweaver-burk plot analysis

T3 sequence (Q13332 whole entry, the tested form may be a part): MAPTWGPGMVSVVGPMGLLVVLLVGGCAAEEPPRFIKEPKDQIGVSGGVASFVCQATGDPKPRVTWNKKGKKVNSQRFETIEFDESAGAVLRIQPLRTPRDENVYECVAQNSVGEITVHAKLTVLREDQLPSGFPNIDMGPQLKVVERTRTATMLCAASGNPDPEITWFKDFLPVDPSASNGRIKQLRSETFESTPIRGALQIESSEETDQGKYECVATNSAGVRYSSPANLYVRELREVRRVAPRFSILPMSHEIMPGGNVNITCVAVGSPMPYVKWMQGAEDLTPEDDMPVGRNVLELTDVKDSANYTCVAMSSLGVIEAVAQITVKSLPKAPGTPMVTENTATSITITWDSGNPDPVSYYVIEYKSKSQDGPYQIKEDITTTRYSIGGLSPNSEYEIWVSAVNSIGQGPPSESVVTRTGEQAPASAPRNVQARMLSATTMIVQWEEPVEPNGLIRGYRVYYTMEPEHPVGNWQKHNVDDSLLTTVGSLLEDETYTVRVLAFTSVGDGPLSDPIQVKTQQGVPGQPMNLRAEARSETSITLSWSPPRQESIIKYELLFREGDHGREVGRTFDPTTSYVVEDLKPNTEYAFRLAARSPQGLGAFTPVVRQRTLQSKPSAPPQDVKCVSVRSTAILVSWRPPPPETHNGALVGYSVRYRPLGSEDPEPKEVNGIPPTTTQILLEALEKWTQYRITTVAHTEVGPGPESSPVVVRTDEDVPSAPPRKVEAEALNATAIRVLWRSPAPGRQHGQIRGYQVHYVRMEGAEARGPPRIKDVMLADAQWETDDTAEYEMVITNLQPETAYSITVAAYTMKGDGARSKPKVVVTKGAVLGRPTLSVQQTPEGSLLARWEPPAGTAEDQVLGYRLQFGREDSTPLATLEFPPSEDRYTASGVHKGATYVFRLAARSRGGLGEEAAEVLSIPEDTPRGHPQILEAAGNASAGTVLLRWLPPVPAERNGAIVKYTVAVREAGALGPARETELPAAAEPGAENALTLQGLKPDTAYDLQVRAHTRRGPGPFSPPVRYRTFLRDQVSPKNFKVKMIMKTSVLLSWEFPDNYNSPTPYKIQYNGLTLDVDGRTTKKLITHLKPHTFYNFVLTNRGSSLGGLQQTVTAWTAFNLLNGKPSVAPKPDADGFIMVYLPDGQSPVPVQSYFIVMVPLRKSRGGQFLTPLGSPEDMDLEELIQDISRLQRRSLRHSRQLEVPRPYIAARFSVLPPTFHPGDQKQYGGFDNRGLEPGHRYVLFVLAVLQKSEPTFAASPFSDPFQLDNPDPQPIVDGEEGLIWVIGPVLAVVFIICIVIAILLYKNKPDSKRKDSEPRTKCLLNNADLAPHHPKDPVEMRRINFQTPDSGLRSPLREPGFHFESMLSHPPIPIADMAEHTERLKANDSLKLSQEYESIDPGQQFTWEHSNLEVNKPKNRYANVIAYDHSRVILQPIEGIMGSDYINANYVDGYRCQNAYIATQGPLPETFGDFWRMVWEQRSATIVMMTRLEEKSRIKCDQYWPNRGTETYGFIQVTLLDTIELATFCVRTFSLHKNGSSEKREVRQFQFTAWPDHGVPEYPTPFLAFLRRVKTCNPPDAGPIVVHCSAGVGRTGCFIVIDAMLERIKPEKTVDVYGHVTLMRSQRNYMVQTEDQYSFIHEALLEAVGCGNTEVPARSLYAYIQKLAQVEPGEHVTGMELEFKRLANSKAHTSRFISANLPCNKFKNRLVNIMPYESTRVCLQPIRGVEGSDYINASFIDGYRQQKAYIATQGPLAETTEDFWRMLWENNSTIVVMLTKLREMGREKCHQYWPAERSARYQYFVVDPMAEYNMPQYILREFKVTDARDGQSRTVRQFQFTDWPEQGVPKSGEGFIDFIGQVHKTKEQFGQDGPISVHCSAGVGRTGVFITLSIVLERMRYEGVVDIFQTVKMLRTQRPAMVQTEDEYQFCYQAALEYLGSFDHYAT
Sequence of Receptor-type tyrosine-protein phosphatase F (Homo sapiens) (P10586 whole entry, the tested form may be a part): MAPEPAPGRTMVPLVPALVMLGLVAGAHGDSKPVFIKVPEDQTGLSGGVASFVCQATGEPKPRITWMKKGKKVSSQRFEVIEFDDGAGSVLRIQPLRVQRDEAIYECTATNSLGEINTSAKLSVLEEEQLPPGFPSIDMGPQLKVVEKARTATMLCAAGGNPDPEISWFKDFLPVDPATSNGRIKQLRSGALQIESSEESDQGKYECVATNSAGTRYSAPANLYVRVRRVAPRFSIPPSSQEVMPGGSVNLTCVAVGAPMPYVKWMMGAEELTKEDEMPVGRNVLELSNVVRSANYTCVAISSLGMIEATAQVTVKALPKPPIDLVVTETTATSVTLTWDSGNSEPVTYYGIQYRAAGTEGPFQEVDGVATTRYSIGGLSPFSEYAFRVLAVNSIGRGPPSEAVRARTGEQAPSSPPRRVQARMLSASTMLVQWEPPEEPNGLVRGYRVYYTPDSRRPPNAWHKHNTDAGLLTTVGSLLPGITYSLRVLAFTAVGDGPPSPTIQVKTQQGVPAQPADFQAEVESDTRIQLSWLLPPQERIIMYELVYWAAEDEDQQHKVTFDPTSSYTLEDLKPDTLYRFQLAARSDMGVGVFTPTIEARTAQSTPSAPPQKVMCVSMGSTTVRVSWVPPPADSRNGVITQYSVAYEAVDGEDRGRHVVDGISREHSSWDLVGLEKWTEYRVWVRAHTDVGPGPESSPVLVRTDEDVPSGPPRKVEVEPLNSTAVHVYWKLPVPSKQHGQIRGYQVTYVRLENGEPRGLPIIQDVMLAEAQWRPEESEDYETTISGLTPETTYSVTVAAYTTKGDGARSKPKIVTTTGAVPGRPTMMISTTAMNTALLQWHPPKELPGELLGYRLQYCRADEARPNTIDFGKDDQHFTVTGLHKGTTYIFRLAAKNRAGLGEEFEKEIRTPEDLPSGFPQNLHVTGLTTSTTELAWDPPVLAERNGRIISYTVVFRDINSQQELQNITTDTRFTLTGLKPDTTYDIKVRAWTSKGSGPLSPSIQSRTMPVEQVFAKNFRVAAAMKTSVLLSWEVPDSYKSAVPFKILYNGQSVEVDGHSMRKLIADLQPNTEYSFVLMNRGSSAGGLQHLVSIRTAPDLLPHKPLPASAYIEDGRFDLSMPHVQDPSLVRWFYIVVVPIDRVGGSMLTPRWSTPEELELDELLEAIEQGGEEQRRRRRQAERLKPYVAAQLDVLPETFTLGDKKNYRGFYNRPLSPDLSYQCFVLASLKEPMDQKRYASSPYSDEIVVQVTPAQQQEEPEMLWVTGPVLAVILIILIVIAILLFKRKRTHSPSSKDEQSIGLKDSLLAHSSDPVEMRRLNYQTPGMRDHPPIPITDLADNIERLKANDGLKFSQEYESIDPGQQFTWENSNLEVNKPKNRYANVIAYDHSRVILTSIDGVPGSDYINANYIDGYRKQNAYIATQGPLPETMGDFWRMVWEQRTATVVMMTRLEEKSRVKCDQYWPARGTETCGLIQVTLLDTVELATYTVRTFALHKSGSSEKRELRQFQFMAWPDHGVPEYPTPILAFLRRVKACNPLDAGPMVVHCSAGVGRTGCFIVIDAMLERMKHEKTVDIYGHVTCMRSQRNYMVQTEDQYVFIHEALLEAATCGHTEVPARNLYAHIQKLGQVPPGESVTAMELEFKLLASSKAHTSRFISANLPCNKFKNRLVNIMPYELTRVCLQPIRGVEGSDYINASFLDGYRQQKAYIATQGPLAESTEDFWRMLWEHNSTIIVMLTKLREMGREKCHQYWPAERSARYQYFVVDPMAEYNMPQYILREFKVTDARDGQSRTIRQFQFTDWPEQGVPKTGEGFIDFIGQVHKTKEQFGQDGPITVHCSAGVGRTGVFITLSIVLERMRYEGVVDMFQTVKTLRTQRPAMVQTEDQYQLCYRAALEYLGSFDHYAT

Row | SMILES | inhibition (Papain (Carica papaya)) | IC50 [1] | inhibition [2] | inhibition [3] | inhibition [4] | IC50 [5] | inhibition (Homo sapiens) | IC50 (Papain) | IC50 [6] | IC50 [7] | inhibition [8] | IC50 [9] | inhibition [10] | inhibition [11] | inhibition (CHO [14]) | Activity (CHO [15]) | other results
1 | Cc1ccc(S(=O)(=O)N(C)CC(=O)N(Cc2ccc(-c3ccc(-c4cccc(C(N)=O)c4)cc3)cc2)c2ccc(C(=O)O)c(O)c2)cc1 | inactive | 4.4 µM | inactive | > 80% | inactive | > 50 µM | inactive | > 10 µM | 4.6 µM | 4.6 µM | > 80% | > 10 µM | > 80% | – | – | – | –
2 | O=C(Cn1cc(-c2c(-c3ccccc3)oc3cc(O)c(C(=O)O)cc23)nn1)Nc1ccc(N2CCOCC2)cc1 | – | – | – | – | – | – | – | – | – | – | – | – | – | – | – | – | IC50 [16]: 22 µM; IC50 [17]: 19 µM
3 | Cc1ccc(S(=O)(=O)N(C)CC(=O)N(Cc2ccc(-c3ccc(-c4cccc(C#N)c4)cc3)cc2)c2ccc(C(=O)O)c(O)c2)cc1 | inactive | 5.1 µM | inactive | > 80% | inactive | > 50 µM | inactive | > 10 µM | 6.1 µM | 5 µM | > 80% | > 10 µM | > 80% | – | – | – | –

More lines, in order of falling IC50 [1], values ahead:

Row | inhibition (Papain (Carica papaya)) | IC50 [1] | inhibition [2] | inhibition [3] | inhibition [4] | IC50 [5] | inhibition (Homo sapiens) | IC50 (Papain) | IC50 [6] | IC50 [7] | inhibition [8] | IC50 [9] | inhibition [10] | inhibition [11] | SMILES | inhibition (CHO [14]) | Activity (CHO [15]) | other results
4 | inactive | 5.6 µM | inactive | > 80% | inactive | > 50 µM | inactive | > 10 µM | 6.3 µM | 4.8 µM | > 80% | > 10 µM | > 80% | – | COC(=O)c1cccc(-c2ccc(-c3ccc(CN(C(=O)CN(C)S(=O)(=O)c4ccc(C)cc4)c4ccc(C(=O)O)c(O)c4)cc3)cc2)c1 | – | – | –
5 | inactive | 5.1 µM | inactive | > 80% | inactive | > 50 µM | inactive | > 10 µM | 3.6 µM | 4.9 µM | > 80% | > 10 µM | > 80% | inactive | CN(C)c1cccc2c(S(=O)(=O)N(C)CC(=O)N(Cc3ccc(C4CCCCC4)cc3)c3ccc(C(=O)O)c(O)c3)cccc12 | Dose-dependent effect | Non-toxic | Ki [12]: 4 µM; Activity (CHO [18]): Toxic
6 | inactive | 4.8 µM | inactive | > 80% | inactive | > 50 µM | inactive | > 10 µM | 4.3 µM | 6.2 µM | > 80% | > 10 µM | > 80% | inactive | CN(CC(=O)N(Cc1ccc(C2CCCCC2)cc1)c1ccc(C(=O)O)c(O)c1)S(=O)(=O)c1cccc2cccnc12 | Dose-dependent effect | Non-toxic | inhibition [19]: Active; Activity (CHO [18]): Toxic
7 | inactive | 3.9 µM | inactive | > 80% | inactive | > 50 µM | inactive | > 10 µM | 5.2 µM | 5.2 µM | > 80% | > 10 µM | > 80% | inactive | CN(CC(=O)N(Cc1ccc(C2CCCCC2)cc1)c1ccc(C(=O)O)c(O)c1)S(=O)(=O)c1cccc2ccccc12 | Dose-dependent effect | Non-toxic | Ki [12]: 2.1 µM; Activity (CHO [13]): Toxic
